In ChEMBL document CHEMBL1201862, “PubChem BioAssay data set” (2004):
Activity calls are given as the source filed them.

Key:
Bcl-2-related protein A1 = biological target: T1, Bcl-2-related protein A1 (Mus musculus, UniProt Q07440); type: functional;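 also: confirmatory dose–response counterscreen on Bfl-1, used to check hits from a UBC13 polyubiquitin inhibitor campaign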
T1 sequence (Q07440 whole entry): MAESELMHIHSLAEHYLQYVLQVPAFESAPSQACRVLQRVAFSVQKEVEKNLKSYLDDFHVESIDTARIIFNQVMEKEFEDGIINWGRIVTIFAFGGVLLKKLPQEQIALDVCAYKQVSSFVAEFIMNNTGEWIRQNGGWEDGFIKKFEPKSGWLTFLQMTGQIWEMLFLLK

[1] = biological target: T2, Ubiquitin-conjugating enzyme E2 N (Homo sapiens, UniProt P61088); type: functional
T2 sequence (P61088 whole entry): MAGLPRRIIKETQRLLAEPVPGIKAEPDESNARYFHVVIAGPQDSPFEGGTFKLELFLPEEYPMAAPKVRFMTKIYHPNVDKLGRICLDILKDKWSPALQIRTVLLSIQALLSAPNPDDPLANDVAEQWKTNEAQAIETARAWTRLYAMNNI

[2] = biological target: T2, Ubiquitin-conjugating enzyme E2 N; type: functional; remark: listed apart in the source
[3] = biological target: T3, Delta-type opioid receptor (Homo sapiens, UniProt P41143); assay: HTS Image-Based Screen for Antagonists of the DOR Receptor. [Related pubchem assays (depositor defined):AID1777, AID1785, AID1786, AID2133]; type: functional
[4] = biological target: T3, Delta-type opioid receptor; assay: DOR agonists, SAR follow-up, image-based (AID 2370); type: functional
[5] = biological target: T4, Kappa-type opioid receptor (Homo sapiens, UniProt P41145); type: functional
[6] = biological target: T3, Delta-type opioid receptor; assay: delta opioid receptor blockers – image-based, SAR follow-up (AID 2357); type: functional
[7] = biological target: T4, Kappa-type opioid receptor; assay: kappa opioid receptor activation potency – imaging, image-based, SAR follow-up (AID 2359); type: functional
[8] = biological target: T4, Kappa-type opioid receptor; assay: kappa opioid receptor blockers, image-based, SAR follow-up (AID 2348); type: functional
Mu-type opioid receptor [9] = biological target: T5, Mu-type opioid receptor (Homo sapiens, UniProt P35372); assay: mu opioid receptor activators, image-based, SAR follow-up (AID 2352); type: functional
[10] = biological target: T4, Kappa-type opioid receptor; type: functional; remark: listed apart in the source
[11] = biological target: T3, Delta-type opioid receptor; assay: HTS Image-Based Screen for Agonists of the DOR Receptor. [Related pubchem assays (depositor defined):AID1777, AID1786, AID2133]; type: functional
Mu-type opioid receptor [12] = biological target: T5, Mu-type opioid receptor; assay: HTS Image-Based Screen for Agonists of the MOR Receptor. [Related pubchem assays (depositor defined):AID1777, AID1785, AID1786, AID2133]; type: functional
Mu-type opioid receptor [13] = biological target: T5, Mu-type opioid receptor; assay: mu opioid receptor blockers – image-based, SAR follow-up (AID 2420); type: functional;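 also: compounds added before stimulation of receptor with agonist DAMGO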
[14] = biological target: T4, Kappa-type opioid receptor; assay: SAR analysis of small molecule agonists of the kappa opioid receptor via a luminescent beta-arrestin assay. [Related pubchem assays (depositor defined):AID1777, AID1786, AID1966, AID2133, AID2136, AID2348, AID2352, AID2357, AID2359, AID2370, AID2420, AID2478, AID2491, AID2492, AID2493, AID2497, AID2498, AID2500, AID449737, AID488822, AID488842]; type: functional
[15] = biological target: T6, Alkaline phosphatase, tissue-nonspecific isozyme (Homo sapiens, UniProt P05186); assay: activation of tissue-nonspecific alkaline phosphatase – biochemical, TNAP isozyme, mouse IAP uHTS hits, selectivity assay for mouse IAP activator project, dose response (AID 488880); type: functional
T6 sequence (P05186 whole entry): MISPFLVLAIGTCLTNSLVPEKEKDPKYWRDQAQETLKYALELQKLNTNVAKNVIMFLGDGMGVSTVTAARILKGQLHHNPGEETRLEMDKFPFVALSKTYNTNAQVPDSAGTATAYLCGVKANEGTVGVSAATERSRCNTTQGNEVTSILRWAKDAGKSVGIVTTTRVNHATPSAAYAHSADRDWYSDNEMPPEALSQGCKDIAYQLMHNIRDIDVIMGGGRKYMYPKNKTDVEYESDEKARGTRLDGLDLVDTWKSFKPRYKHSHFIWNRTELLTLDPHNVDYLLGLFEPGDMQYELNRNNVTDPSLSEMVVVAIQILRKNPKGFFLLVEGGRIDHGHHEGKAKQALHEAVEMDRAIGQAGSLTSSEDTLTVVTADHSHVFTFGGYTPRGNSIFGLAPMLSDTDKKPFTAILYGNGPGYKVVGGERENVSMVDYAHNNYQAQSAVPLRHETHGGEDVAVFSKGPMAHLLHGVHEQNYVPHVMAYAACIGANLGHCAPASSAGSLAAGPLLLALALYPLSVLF

Caspase-6 = biological target: T7, Caspase-6 (Homo sapiens, UniProt P55212); assay: inhibition of CASP6 peptide cleavage – biochemical, VEID-R110 fluorescence, cherry-pick, dose response (AID 720632)
T7 sequence (P55212 whole entry): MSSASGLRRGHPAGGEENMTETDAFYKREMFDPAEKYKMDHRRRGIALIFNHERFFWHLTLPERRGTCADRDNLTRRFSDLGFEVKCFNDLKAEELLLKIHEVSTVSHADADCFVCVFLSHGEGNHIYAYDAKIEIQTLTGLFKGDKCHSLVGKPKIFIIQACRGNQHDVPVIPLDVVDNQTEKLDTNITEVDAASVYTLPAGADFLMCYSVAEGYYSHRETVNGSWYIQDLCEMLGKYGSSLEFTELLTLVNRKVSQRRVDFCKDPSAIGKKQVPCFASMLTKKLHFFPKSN

[16] = biological target: Intestinal-type alkaline phosphatase (Mus musculus, UniProt P24822); assay: mouse intestinal alkaline phosphatase activators, dose response, biochemical, luminescence, uHTS hits (AID 488783); type: functional
[17] = biological target: Intestinal-type alkaline phosphatase (Homo sapiens, UniProt P09923); assay: activation of human intestinal alkaline phosphatase – biochemical, dose response (AID 488873); type: functional
Chain of Intestinal-type alkaline phosphatase (Homo sapiens, UniProt P09923) (P09923 whole entry): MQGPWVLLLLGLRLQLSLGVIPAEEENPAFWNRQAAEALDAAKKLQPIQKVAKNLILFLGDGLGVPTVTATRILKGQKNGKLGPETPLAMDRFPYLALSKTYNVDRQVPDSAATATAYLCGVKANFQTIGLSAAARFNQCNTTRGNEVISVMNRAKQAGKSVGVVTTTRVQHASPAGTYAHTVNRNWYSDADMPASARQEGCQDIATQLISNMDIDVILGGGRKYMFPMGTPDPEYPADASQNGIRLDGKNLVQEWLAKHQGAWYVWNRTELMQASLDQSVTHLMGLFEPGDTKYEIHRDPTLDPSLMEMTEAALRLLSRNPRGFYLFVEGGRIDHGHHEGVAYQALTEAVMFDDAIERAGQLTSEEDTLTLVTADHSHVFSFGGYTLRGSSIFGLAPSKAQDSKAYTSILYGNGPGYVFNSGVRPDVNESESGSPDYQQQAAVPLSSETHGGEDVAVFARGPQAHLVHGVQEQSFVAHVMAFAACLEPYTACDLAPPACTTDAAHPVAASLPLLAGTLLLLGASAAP

T4 sequence (P41145 whole entry): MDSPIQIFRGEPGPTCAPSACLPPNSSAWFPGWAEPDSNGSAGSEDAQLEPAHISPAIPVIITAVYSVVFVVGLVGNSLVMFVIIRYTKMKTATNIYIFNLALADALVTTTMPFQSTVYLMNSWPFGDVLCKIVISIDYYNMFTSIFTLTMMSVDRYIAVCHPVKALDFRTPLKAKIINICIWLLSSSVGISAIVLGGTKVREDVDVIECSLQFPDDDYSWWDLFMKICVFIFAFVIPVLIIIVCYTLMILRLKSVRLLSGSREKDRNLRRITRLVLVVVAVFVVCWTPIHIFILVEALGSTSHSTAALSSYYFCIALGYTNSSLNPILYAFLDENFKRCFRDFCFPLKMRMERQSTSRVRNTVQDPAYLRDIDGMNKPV
T3 sequence (P41143 whole entry): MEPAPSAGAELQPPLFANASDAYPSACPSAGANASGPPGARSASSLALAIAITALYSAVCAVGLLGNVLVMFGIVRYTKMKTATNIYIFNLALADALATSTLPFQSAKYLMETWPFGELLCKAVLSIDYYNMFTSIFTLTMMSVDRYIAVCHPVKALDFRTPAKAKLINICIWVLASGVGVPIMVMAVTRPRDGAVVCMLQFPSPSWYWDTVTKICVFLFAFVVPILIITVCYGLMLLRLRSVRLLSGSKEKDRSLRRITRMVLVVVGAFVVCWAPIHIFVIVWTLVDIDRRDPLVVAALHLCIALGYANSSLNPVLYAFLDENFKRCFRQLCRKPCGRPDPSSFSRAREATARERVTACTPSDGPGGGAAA
T5 sequence (P35372 whole entry): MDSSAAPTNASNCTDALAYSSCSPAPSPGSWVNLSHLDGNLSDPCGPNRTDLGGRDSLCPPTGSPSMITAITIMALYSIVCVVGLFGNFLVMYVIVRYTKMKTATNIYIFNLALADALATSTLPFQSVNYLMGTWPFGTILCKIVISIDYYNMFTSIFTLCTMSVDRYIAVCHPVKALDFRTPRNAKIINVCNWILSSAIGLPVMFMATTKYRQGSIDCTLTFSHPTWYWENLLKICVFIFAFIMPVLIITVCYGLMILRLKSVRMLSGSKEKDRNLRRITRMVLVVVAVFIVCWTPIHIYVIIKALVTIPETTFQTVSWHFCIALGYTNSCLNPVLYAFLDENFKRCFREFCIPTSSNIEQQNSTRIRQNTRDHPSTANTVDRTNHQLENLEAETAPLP
Chain of Intestinal-type alkaline phosphatase (Mus musculus, UniProt P24822) (P24822 whole entry): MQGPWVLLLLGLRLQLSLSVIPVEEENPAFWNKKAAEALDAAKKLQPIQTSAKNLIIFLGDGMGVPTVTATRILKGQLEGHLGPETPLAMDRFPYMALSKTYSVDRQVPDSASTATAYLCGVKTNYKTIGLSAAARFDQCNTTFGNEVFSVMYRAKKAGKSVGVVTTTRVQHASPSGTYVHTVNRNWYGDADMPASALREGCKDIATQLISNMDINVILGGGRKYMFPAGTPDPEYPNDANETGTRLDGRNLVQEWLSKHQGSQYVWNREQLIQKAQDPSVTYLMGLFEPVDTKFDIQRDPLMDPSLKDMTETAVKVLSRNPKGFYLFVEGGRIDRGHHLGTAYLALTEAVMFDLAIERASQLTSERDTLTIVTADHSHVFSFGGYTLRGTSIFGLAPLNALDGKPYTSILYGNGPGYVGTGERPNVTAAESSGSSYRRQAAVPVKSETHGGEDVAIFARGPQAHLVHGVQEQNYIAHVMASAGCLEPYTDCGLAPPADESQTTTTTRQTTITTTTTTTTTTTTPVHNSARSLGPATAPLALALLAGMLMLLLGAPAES

CCOC(=O)c1nn(-c2ccccc2)c(=O)cc1OCC(=O)Nc1ccccc1OCC
IC50 (Bcl-2-related protein A1): > 20 µM (inactive) | IC50 [1]: > 20 µM (inactive) | IC50 [2]: 14.9 µM (active)

C(=C\c1ccccc1)/CSc1nnc(-c2ccccn2)n1Cc1ccco1
IC50 [3]: > 32 µM (inactive) | EC50 [4]: > 32 µM (inactive) | EC50 [5]: 5.22 µM | IC50 [6]: > 32 µM (inactive) | EC50 [7]: 1.43 µM (active) | IC50 [8]: > 32 µM (inactive) | EC50 (Mu-type opioid receptor [9]): > 32 µM (inactive) | EC50 [10]: 3.18 µM | EC50 [11]: > 32 µM (inactive) | EC50 (Mu-type opioid receptor [12]): > 32 µM (inactive) | IC50 (Mu-type opioid receptor [13]): > 32 µM (inactive) | EC50 [14]: 2.22 µM (active)

O=C(COC(=O)c1ccc(Br)o1)Nc1ncc([N+](=O)[O-])s1
EC50 [15]: 85.8 µM (active) | AC50 (Caspase-6): 8.5 µM (active) | EC50 [16]: 39.9 µM (active) | EC50 [17]: 68.4 µM (active)
